Source: patent US8536196B2, “Substituted 1,3-dioxanes useful as PPAR modulators” (Evolva SA, priority 2007, dated 2013)

Experiments:
[1] = test system: human cervical carcinoma cell line (HeLa); experiment: Inhibition of cancer cell proliferation (flow cytometry); assay type: cell-based; details: 48 hours of treatment, read-out: inhibition of proliferation of HeLa cells
Description: (§1) A human cervical carcinoma cell line (HeLa) engineered to stably express a recombinant biosensor reporter activity and a non-cancer cell line, HaCaT (Boukamp et al., 1988, J. Cell Biol 106(3):761-771) was used with a Caspa Tag kit (commercially available eg from Chemicon). The detection of proliferation was carried out using a high content screening automated flow cytometer.
(§2) DPD (Substance 1) was diluted to 20 μM in cell culture medium without serum adjusted to 1% DMSO. Detection of cellular events was performed in duplicate in 96-well plates after 48 hours of treatment in the FL2 (dilution of a proliferative marker) channels of a HTS flow cytometer (FACS Calibur HTS, Becton Dickenson). At day 1, cells were seeded in 96 well plates. Cells were treated with DPD and the appropriate controls on day 2 and analysis was carried out on day 4.

3T3-L1 preadipocytes = experiment: Glucose uptake assay; assay type: cell-based
Description: This example illustrates that compounds identified as PPARgamma agonists also produce a physiological effect in cellular assays, expected of a PPARgamma agonist, namely an effect on glucose uptake. Glucose uptake assays are important to establish the suitability of a compound for the treatment of insulin resistance.
Briefly, 3T3-L1 preadipocytes are grown in 12-well plates until confluence. Cells are washed with serum-free DMEM and incubated with 1 ml of the same medium at 37° C. for 1-2 h. The cells are then washed with Krebs-Ringer-Hepes (KRP) buffer and then incubated with 0.9 ml KRP buffer at 37° C. for 30 min. Insulin is added to the cells at 0, 0.3, 1 and 3 nM final concentrations and incubated for 15 min at 37° C. Glucose uptake is initiated by the addition of 0.1 ml of Krebs-Ringer phosphate (KRP) buffer supplemented with 10 mM [^3H] 2-deoxy-D-glucose (1 mCi/l). After 10 min incubation at 37° C., the medium is aspirated and plates washed with ice-cold PBS to terminate the induced glucose uptake. The cells are lyzed with 0.5 ml 1% Triton X-100 and radioactivity levels determined using a scintillation counter. The results are depicted in FIG. 7.

MEFs / 3T3-L1 = experiment: Adipocyte differentiation induction assay (Oil Red O staining); assay type: cell-based, mouse
Description: This example describes an assay for determining adipocyte differention. Compounds are tested to see whether they induce adipocyte differentiation and also to see whether they inhibit adipocyte differention.
MEFs were grown in AmnioMax basal medium (Gibco) supplemented with 7.5% Amniomax supplement C-100 (Gibco), 7.5% Fetal Bovine Serum (FBS), 2 mM Glutamine, 62.5 μg/ml penicillin and 100 μg/ml Streptomycin (growth medium). At confluence, MEFs were induced to differentiation in growth medium with the addition of 1 μM dexamethasone (Sigma) 0.5 mM isobutylmethylxanthine (Sigma), 5 μg/ml insulin (Sigma) and 10 μM test compound dissolved in DMSO or DMSO alone. Medium was subsequently renewed every 48 hrs with growth media supplemented with 5 μg/ml Insulin and ligand or DMSO.
Briefly, to test compounds as inducers of adipocyte differentiation, 3T3-L1 are grown to confluence in DMEM with 10% Calf serum (CS), typically in 24 well dishes. At 2 days post confluence (day 0), cells are induced to differentiate with DMEM supplemented with 10% fetal bovine serum (FBS), 1 μM dexamethasone and the test compound (01, 1 and 10 μM). BRL49653 (1.0 μM dissolved in 100% DMSO) is used as a positive control. After 48 h, the cells are re-fed with DMEM containing 10% FBS supplemented with the test compound or the positive control. From day 4, cells are grown in DMEM with 10% FBS and are changed every second day until day 8. At day 8, cells are stained with Oil Red O as described below.
Cells cultured as described above are used for Oil Red staining. Dishes are washed in PBS and cells were fixed in 3.7% paraformaldehyde for 1 h and stained with oil red O as described in (Hansen et al 1999). Oil red O solution stock solution is prepared by dissolving 0.5 g of Oil Red O (Sigma) in 100 mL of isopropanol. Oil re 0 working solution is prepared by diluting a stock solution with water (6:4) followed by filtration.
Table II summarizes results obtained with different analogs of DPD (SN1), “0” representing similar results to DPD, “−1” representing even less adipocyte differentiation, “+1” representing more adipocyte differentiation (both relative to DPD) and “−” meaning not assayed.

HaCaT = experiment: Proliferation of non-cancer cell line (flow cytometry); assay type: cell-based; details: 20 μM, 48 hours of treatment
Description: as §1, §2

PPARgamma (h) = biological target: T1, PPARgamma (h) (Homo sapiens, UniProt P37231); experiment: Human recombinant (E. coli) PPARgamma (h) binding assay; details: [3H]-rosiglitazone 10 nM, 120 min at 4° C.
T1 construct: host or cells: E. coli
T1 sequence (P37231 1-505): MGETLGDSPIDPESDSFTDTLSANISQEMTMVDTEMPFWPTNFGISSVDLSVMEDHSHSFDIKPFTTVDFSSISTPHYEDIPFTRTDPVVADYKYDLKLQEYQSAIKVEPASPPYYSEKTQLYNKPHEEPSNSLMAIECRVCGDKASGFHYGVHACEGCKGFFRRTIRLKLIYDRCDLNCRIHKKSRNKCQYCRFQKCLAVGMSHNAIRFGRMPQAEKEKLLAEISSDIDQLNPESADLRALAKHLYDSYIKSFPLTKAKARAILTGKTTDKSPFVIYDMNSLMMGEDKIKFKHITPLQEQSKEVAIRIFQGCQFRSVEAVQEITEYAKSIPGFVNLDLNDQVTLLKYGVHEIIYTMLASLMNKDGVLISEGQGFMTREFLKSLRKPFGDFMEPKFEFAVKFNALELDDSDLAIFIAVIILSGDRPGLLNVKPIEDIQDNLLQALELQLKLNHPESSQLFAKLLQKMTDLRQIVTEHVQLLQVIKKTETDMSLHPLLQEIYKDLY
Description: The results are expressed as a percent of control specific binding ((measured specific binding/control specific binding)×100) obtained in the presence of the test compounds. The IC50 values (concentration causing a half-maximal inhibition of control specific binding) and Hill coefficients (nH) were determined by non-linear regression analysis of the competition curves generated with mean replicate values using Hill equation curve fitting (Y=D+[(A D)/(1+(C/C50)nH)], where Y=specific binding, D=minimum specific binding, A=maximum specific binding, C=compound concentration, C50=IC50, and nH=slope factor). This analysis was performed using a software developed at Cerep (Hill software) and validated by comparison with data generated by the commercial software SigmaPlot® 4.0 for Windows® (© 1997 by SPSS Inc.). The inhibition constants (Ki) were calculated using the Cheng Prusoff equation (Ki=IC50/(1+(L/KD)), where L=concentration of radioligand in the assay, and KD=affinity of the radioligand for the receptor).

IC50 (PPARgamma (h)): 21 µM
Structure (SMILES): O=C(O)CC/C=C\CC1COC(c2ccccc2Cl)OC1c1ccccc1O (racemic) [SN1, (Z)-6-(-2-(2-chlorophenyl)-4-(2-hydroxyphenyl)-1,3-dioxan-5-yl)hex-4-enoic acid]
inhibition at 20 µM [1]: 90% | glucose uptake compared with Avandia (3T3-L1 preadipocytes): same level of glucose uptake at 10 mM as Avandia at 1 mM | red staining (Oil Red O) in the induction assay (MEFs / 3T3-L1): very little red staining | effect on non-cancer cell line HaCaT (HaCaT): no effect
